# Source: patent publication US20120035256A1, “Use of bipolar trans carotenoids as a pretreatment and in the treatment of peripheral vascular disease” (Diffusion Pharmaceuticals LLC, priority 2008, published 2012)
# What was measured:
# [1] = test system: atherosclerotic plaque formation; details: rabbits; Gainer and Chisolm, Atherosclerosis 19: 135-138, 1974; cited from earlier work
# [2] = test system: focal cerebral ischemia (three vessel occlusion: both CCA and MCA); assay: Three vessel occlusion focal cerebral ischemic model; format: in vivo, rat
# Text: Preconditioning or pretreating a patient (mammal including human) with a bipolar trans carotenoid is advisable for the following patients: • a patient at risk of an ischemic event; • a patient at risk of forming an embolism or blood clot in the blood vessels, the brain, the heart, or the lungs. The embolism can be fat globules (a fat embolism), air bubbles (an air embolism), talc embolism (often following drug abuse), septic emboli (containing pus and bacteria), atherosclerotic emboli, or amniotic fluid; • a patient at risk of stroke including a patient diagnosed with a blocked carotid artery or having suffered a transient ischemic attack (TIA). In Example 2, TSC was administered intravenously to rats 24 hours before the ischemic injury to the brain occurred. Sufficient time passed between the administration of TSC and the subsequent event so that the TSC would have been cleared from the system. The TSC was dissolved in water, and given over a period of an hour in the following manner. First a 0.1 ml bolus injection was given, then a slow infusion (0.6 ml given over 60 minutes) was given, and finally another 0.1 ml bolus was given. […] The occlusions were removed after 2 hours, and the infarct volume (core plus penumbra) was measured 24 hours later. […]
# Trans-sodium crocetinate (0.091 mg/kg total dosage) or vehicle was administered intravenously as follows 1) 0.1 ml injection 2) continuous infusion of TSC at a rate of 0.01 ml/min for the next 60 minutes, and 3) a final 0.1 ml injection of TSC 30 minutes after the cessation of continuous infusion. […] Infarction volumes were measured 24 hours after the ischemic event.
# The effects of TSC on focal ischemic injury were examined using adult male Sprague-Dawley rats, each of which weighed between 330 and 370 g. […] Rectal temperature was monitored continuously and maintained at 37° C. with a heating lamp. […]
# Focal ischemic was performed by clipping (Sundt AVM microclip No 1, Codman & Shurtleff, Inc., Raynham, Mass.) the MCA at a point distal to the origin of the lenticulostriate arteries. […] After 24 hours, infarct volume was calculated. […]
# [3] = Rat transcutaneous oxygen (TCOM) study with 100% oxygen; format: in vivo; details: male Sprague-Dawley rats breathing 100% oxygen, TSC injected into femoral vein, 45 minutes recording, FIG. 1
# Experimental: For the rat TCOM studies, male Sprague-Dawley rats were used which weighed between 350 and 400 grams each. TCOM electrodes are attached to humans on the chest, on the leg, or on the top of the foot. Using a TCOM apparatus (Radiometer), the electrodes were attached to the shaven skin in the areas of the chest, the abdomen, and the thigh of the rats. Pure oxygen was then administered to the rats. The most reproducible results came from the electrode attached near the rat's abdomen, on the left or right side.
# The rats were anesthetized (to quiet them) using IP injections of 80 mg/kg ketamine and 10 mg/kg xylazine.
# After the animals were asleep, the abdomen area of the rat was shaved and the TCOM electrode collar was attached to that area. Using Dow Corning high vacuum silicone grease between the electrode collar and the skin was helpful in maintaining a good seal on the rat's skin.
# After attaching the TCOM probe, the transcutaneous oxygen tension was then monitored for 30 minutes while the rat breathed room air. The rat was then switched to 100% oxygen and TSC was injected into the femoral vein. The TCOM readings were then recorded for an additional 45 minutes.
SMILES,Atherosclerotic plaque formation over time [1],"Infarct volume (actual, adjusted for swelling) ([2]; 3VO+TSC group, TSC 0.091 mg/kg total i.v. 24 hours before 120 min ischemia, measured 24 hours after the ischemic event, mean±SEM, p<0.01 vs 3VO-only or 3VO+Vehicle)","Reduction in infarct volume, preischemic treatment ([2]; TSC 0.091 mg/kg i.v. 24 hours before ischemic injury, occlusions removed after 2 hours, infarct volume measured 24 hours later)","Reduction in infarct volume, intraischemic treatment ([2]; intraischemic treatment with TSC done previously in this model)",TCOM reading (transcutaneous oxygen tension) [3]
CC(/C=C/C=C(\C)C(=O)O)=C\C=C\C=C(C)\C=C\C=C(/C)C(=O)O [Crocetin],reduction in atherosclerotic plaque formation,,,,
"CC(/C=C/C=C(\C)C(=O)[O-])=C\C=C\C=C(C)\C=C\C=C(/C)C(=O)[O-].[Na+].[Na+] [TSC, trans sodium crocetinate]",,57.7±16.2 mm3,65%,58%,additional increase in the TCOM reading
